pIC50, pKi: −log10 of the molar value. The source made the active and inactive calls. No cut-off for these calls is given here.
Legend:
[1] = molecular target: T1, 5-hydroxytryptamine receptor 1A (Homo sapiens, UniProt P08908); test: Displacement of [3H]-[…] from human recombinant 5HT1A receptor expressed in CHO cells after 60 mins by liquid scintillation counting analysis; format: cell-based
T1 sequence (P08908 whole entry): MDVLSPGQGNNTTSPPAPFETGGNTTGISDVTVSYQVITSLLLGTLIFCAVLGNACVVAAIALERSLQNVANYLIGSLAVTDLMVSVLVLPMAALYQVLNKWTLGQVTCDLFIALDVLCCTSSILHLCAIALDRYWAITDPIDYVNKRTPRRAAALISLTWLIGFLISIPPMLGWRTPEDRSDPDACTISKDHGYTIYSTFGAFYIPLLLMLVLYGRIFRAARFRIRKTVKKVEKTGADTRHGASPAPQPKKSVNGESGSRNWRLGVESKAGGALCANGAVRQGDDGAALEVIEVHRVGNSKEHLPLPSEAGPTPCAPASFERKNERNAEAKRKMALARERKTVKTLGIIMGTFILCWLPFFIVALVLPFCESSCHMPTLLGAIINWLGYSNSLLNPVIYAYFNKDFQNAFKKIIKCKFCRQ

[2] = molecular target: T2, 5-hydroxytryptamine receptor 1A (Rattus norvegicus) (UniProt P19327); test: Agonist activity at Wistar rat brain 5HT1A receptor assessed as inhibition of firing rate of dorsal raphe nucleus by electrophysiological analysis in presence of WAY-100635; format: tissue-based
T2 sequence (whole entry): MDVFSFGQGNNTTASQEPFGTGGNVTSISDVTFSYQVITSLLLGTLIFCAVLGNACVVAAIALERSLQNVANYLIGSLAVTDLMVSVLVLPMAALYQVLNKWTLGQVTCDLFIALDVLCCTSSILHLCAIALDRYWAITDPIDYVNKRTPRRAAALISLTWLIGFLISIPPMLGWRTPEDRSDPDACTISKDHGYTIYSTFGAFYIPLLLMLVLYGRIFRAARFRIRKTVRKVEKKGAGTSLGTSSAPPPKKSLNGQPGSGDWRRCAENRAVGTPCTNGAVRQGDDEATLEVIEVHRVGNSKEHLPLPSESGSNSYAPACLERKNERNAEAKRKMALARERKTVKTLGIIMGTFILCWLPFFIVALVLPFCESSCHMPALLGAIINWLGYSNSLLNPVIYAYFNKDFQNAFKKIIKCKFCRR

[3] = molecular target: T3, 5-hydroxytryptamine receptor 1A (Rattus norvegicus, UniProt P19327); test: Agonist activity at Wistar rat brain 5HT1A receptor assessed as inhibition of firing rate of dorsal raphe nucleus by electrophysiological analysis; format: tissue-based
T3 sequence (P19327 whole entry): T2 sequence (whole entry)

[4] = molecular target: T4, 5-hydroxytryptamine receptor 1A (Homo sapiens) (UniProt P08908); test: Displacement of [3H]-[…] from human recombinant 5HT1A receptor expressed in CHO cells assessed as residual activity at 1 uM after 60 mins by liquid scintillation counting analysis; format: cell-based
T4 sequence (whole entry): T1 sequence (P08908 whole entry)

Structure (SMILES) | pKi [1] | further results
O=C1c2ccccc2C(=O)N1CCN1CC=C(c2cc(F)cc(F)c2)CC1 | 6.37 | –
O=C(NCCN1CCN(c2ccccc2)CC1)c1cnc2ccccc2n1 | 7.52 | inhibition [2]: inactive; pIC50 [3]: 5.77
O=C(NCCN1CCN(c2ccccc2)CC1)c1ccc2ccccc2c1 | 7.61 | –
Cc1cc(C)cc(N2CCN(CCNC(=O)c3ccc4ccccc4c3)CC2)c1 | 7.68 | –
O=C1c2ccccc2C(=O)N1CCN1CCN(c2ccccc2)CC1 | – | Activity [4]: 82%
O=C(NCCN1CC=C(c2ccc(F)cc2)CC1)c1ccc2ccccc2c1 | 7.47 | –
Cc1cc(C)cc(C2=CCN(CCNC(=O)c3ccc4ccccc4c3)CC2)c1 | 8.09 | –
O=C(NCCN1CC=C(c2cc(F)cc(F)c2)CC1)c1ccc2ccccc2c1 | 8.14 | –
Cc1ccc(C2=CCN(CCN3C(=O)c4ccccc4C3=O)CC2)cc1 | – | Activity [4]: 80%
O=C(NCCN1CC=C(c2cc(F)cc(F)c2)CC1)c1cnc2ccccc2n1 | 8.58 | inhibition [2]: inactive; pIC50 [3]: 7.02
O=C1c2ccccc2C(=O)N1CCN1CC=C(c2ccccc2)CC1 | 6.15 | –
Cc1cc(C)cc(C2=CCN(CCNC(=O)c3cnc4ccccc4n3)CC2)c1 | 8.96 | inhibition [2]: inactive; pIC50 [3]: 6.76
O=C(NCCN1CCN(c2ccc(F)cc2)CC1)c1cnc2ccccc2n1 | 7.20 | –
O=C1c2ccccc2C(=O)N1CCN1CC=C(c2ccc(F)cc2)CC1 | – | Activity [4]: 76.8%
O=C(NCCN1CCN(c2ccc(Cl)cc2)CC1)c1cnc2ccccc2n1 | 7.57 | –
O=C(NCCN1CCN(c2ccc(Cl)cc2)CC1)c1ccc2ccccc2c1 | 7.29 | –
Cc1cc(C)cc(N2CCN(CCN3C(=O)c4ccccc4C3=O)CC2)c1 | 6.30 | –
O=C1c2ccccc2C(=O)N1CCN1CCN(c2ccc(F)cc2)CC1 | – | Activity [4]: 80.4%

Structure (SMILES) | pKi [1] | further results
Cc1ccc(C2=CCN(CCNC(=O)c3cnc4ccccc4n3)CC2)cc1 | 8.12 | –
Cc1ccc(N2CCN(CCNC(=O)c3cnc4ccccc4n3)CC2)cc1 | 7.56 | –
O=C1c2ccccc2C(=O)N1CCN1CCN(c2ccc(Cl)cc2)CC1 | – | Activity [4]: 97.4%
Cc1cc(C)cc(N2CCN(CCNC(=O)c3cnc4ccccc4n3)CC2)c1 | 8.44 | inhibition [2]: inactive; pIC50 [3]: 6.42
O=C(NCCN1CC=C(c2ccc(Cl)cc2)CC1)c1cnc2ccccc2n1 | 8.03 | –
Cc1cc(C)cc(C2=CCN(CCN3C(=O)c4ccccc4C3=O)CC2)c1 | 6.98 | –
Cc1ccc(N2CCN(CCN3C(=O)c4ccccc4C3=O)CC2)cc1 | – | Activity [4]: 97%
O=C1c2ccccc2C(=O)N1CCN1CC=C(c2ccc(Cl)cc2)CC1 | 6.20 | –
O=C(NCCN1CC=C(c2ccc(Cl)cc2)CC1)c1ccc2ccccc2c1 | 7.37 | –
O=C(NCCN1CC=C(c2ccccc2)CC1)c1ccc2ccccc2c1 | 8.21 | –
O=C(NCCN1CCN(c2cc(F)cc(F)c2)CC1)c1cnc2ccccc2n1 | 7.95 | inhibition [2]: inactive; pIC50 [3]: 5.94
O=C(NCCN1CC=C(c2ccc(F)cc2)CC1)c1cnc2ccccc2n1 | 7.85 | –
O=C1c2ccccc2C(=O)N1CCN1CCN(c2cc(F)cc(F)c2)CC1 | – | Activity [4]: 79.6%
Cc1ccc(N2CCN(CCNC(=O)c3ccc4ccccc4c3)CC2)cc1 | 6.65 | –
O=C(NCCN1CCN(c2ccc(F)cc2)CC1)c1ccc2ccccc2c1 | 7.27 | –
O=C(NCCN1CC=C(c2ccccc2)CC1)c1cnc2ccccc2n1 | 8.42 | inhibition [2]: inactive; pIC50 [3]: 6.34
Cc1ccc(C2=CCN(CCNC(=O)c3ccc4ccccc4c3)CC2)cc1 | 7.50 | –
O=C(NCCN1CCN(c2cc(F)cc(F)c2)CC1)c1ccc2ccccc2c1 | 7.54 | –

Reference: ChEMBL document CHEMBL3259622, “Enhancing a CH-π Interaction to Increase the Affinity for 5-HT1A Receptors” (ACS Med Chem Lett, 2014)
